From ChEMBL document CHEMBL1201862, “PubChem BioAssay data set” (2004)
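Step 1: Grow cells in 96-well plates. Step 2: Expose to compound for 48 hours at 5 concentrations. Step 3: Interpolate endpoints linearly; if unreached, use highest concentration. At the GI50, growth is halved.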 Calls of active or inactive are those of the source. Cut-off read from the data, not from the text of the source: active = GI50 up to about 1.1 µM and inactive = higher.

Key:
Experiment in all cases: NCI tumour cell line growth inhibition, 48 h
[1] = system: 786-0
[2] = system: A549
[3] = system: CAKI-1
[4] = system: CCRF-CEM
[5] = system: COLO 205
[6] = system: DLD-1
[7] = system: DMS-114
[8] = system: DMS-273
[9] = system: EKVX
[10] = system: HCC 2998
[11] = system: HCT-15
[12] = system: HOP-18
[13] = system: HOP-62
[14] = system: HT-29
[15] = system: IGROV-1
[16] = system: K562
[17] = system: KM-20L2
[18] = system: KM12
[19] = system: LOX IMVI
[20] = system: LXFL 529
[21] = system: M14
[22] = system: M19-MEL
[23] = system: MOLT-4
[24] = system: Malme-3M
[25] = system: NCI-H23
[26] = system: OVCAR-3
[27] = system: OVCAR-4
[28] = system: OVCAR-5
[29] = system: OVCAR-8
[30] = system: RPMI-8226
[31] = system: RXF 393
[32] = system: RXF 631
[33] = system: SF-268
[34] = system: SF-295
[35] = system: SF-539
[36] = system: SK-MEL-28
[37] = system: SK-MEL-2
[38] = system: SK-OV-3
[39] = system: SN12C
[40] = system: SNB-19
[41] = system: SNB-75
[42] = system: SNB-78
[43] = system: SW-620
[44] = system: TK-10
[45] = system: U-251
[46] = system: UACC-257
[47] = system: UACC-62
[48] = system: UO-31
[49] = system: XF498

Measured: GI50

CC(C)(C)c1cc2nc(c1)C(C(F)(F)F)(C(F)(F)F)OB(Br)OC2(C(F)(F)F)C(F)(F)F
29.9 nM: [11]
inactive: [25] 4470 nM | [31] 10000 nM | [33] 3010 nM | [36] 4800 nM | [37] 1470 nM | [38] 1300 nM | [41] 3560 nM
active: [1] 115 nM | [2] < 10 nM | [3] 41.4 nM | [4] < 10 nM | [5] < 10 nM | [6] 24.8 nM | [7] < 10 nM | [8] < 10 nM | [9] < 10 nM | [10] 233 nM | [12] < 10 nM | [13] 36.7 nM | [14] 156 nM | [15] 26.9 nM | [16] 43.4 nM | [17] < 10 nM | [18] < 10 nM | [19] 37.8 nM | [20] 261 nM | [21] 20.9 nM | [22] 26.8 nM | [23] < 10 nM | [24] 617 nM | [26] < 10 nM | [27] < 10 nM | [28] 53.2 nM | [29] < 10 nM | [30] 60.7 nM | [32] 83.6 nM | [34] 83.4 nM | [35] 316 nM | [39] 173 nM | [40] 156 nM | [42] 120 nM | [43] < 10 nM | [44] 80.2 nM | [45] 84 nM | [46] < 10 nM | [47] 17.6 nM | [48] 292 nM | [49] 1040 nM
